Records with an inconclusive call do not appear. Activity calls are given as the source filed them.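 Rule for the calls: active = signal loss with an EC50 at or below twice the highest valid dose for that sample; inconclusive = flat curve with 30 to 70% inhibition, or poor fit; inactive = the rest.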
Test system: P. falciparum Dd2 in erythrocytes, SYBR Green growth, 72 h
Experiment: Dd2 parasite growth inhibition in erythrocytes – SYBR Green, dry powder samples, set 9, dose response (AID 1159568)

O=C(C[C@H]1C[C@H]2c3cc(NC(=O)c4ccc5c(c4)OCO5)ccc3O[C@H]2[C@H](CO)O1)NCc1ccc(Oc2ccccc2)cc1
EC50: > 39 µM (inactive)
